According to PubChem BioAssay AID1259407 (Chemical Carcinogenesis Research Information System (CCRIS), 2018):
Calls of active or inactive are those of the source. No rule for the calls is given here.

Tested on: CCRIS mutagenicity, Ames/micronucleus/aberration tests
Assay: CCRIS mutagenicity studies
[1] = Test System: AMES SALMONELLA TYPHIMURIUM, Strain/Indicator: TA98, Metabolic Activation: NONE, Method: PREINCUBATION
[2] = Test System: AMES SALMONELLA TYPHIMURIUM, Strain/Indicator: TA100, Metabolic Activation: NONE, Method: PREINCUBATION
[3] = Test System: AMES SALMONELLA TYPHIMURIUM, Strain/Indicator: TA1535, Metabolic Activation: NONE, Method: PREINCUBATION
[4] = Test System: AMES SALMONELLA TYPHIMURIUM, Strain/Indicator: TA1537, Metabolic Activation: NONE, Method: PREINCUBATION
[5] = Test System: AMES SALMONELLA TYPHIMURIUM, Strain/Indicator: TA98, Metabolic Activation: NONE, Method: STANDARD PLATE
[6] = Test System: AMES SALMONELLA TYPHIMURIUM, Strain/Indicator: TA100, Metabolic Activation: NONE, Method: STANDARD PLATE

Measured: mutagenic call

CS
inactive: [1] inactive; negative | Test System: AMES SALMONELLA TYPHIMURIUM, Strain/Indicator: TA98, Metabolic Activation: RAT, LIVER, S-9, SODIUM PHENOBARBITAL AND 5,6-BENZOFLAVONE, Method: PREINCUBATION inactive; negative | [2] inactive; negative | Test System: AMES SALMONELLA TYPHIMURIUM, Strain/Indicator: TA100, Metabolic Activation: RAT, LIVER, S-9, SODIUM PHENOBARBITAL AND 5,6-BENZOFLAVONE, Method: PREINCUBATION inactive; negative | Test System: AMES SALMONELLA TYPHIMURIUM, Strain/Indicator: TA102, Metabolic Activation: NONE, Method: PREINCUBATION inactive; negative | Test System: AMES SALMONELLA TYPHIMURIUM, Strain/Indicator: TA102, Metabolic Activation: RAT, LIVER, S-9, SODIUM PHENOBARBITAL AND 5,6-BENZOFLAVONE, Method: PREINCUBATION inactive; negative | Test System: AMES SALMONELLA TYPHIMURIUM, Strain/Indicator: TA104, Metabolic Activation: NONE, Method: PREINCUBATION inactive; negative | Test System: AMES SALMONELLA TYPHIMURIUM, Strain/Indicator: TA104, Metabolic Activation: RAT, LIVER, S-9, SODIUM PHENOBARBITAL AND 5,6-BENZOFLAVONE, Method: PREINCUBATION inactive; negative | [3] inactive; negative | Test System: AMES SALMONELLA TYPHIMURIUM, Strain/Indicator: TA1535, Metabolic Activation: RAT, LIVER, S-9, SODIUM PHENOBARBITAL AND 5,6-BENZOFLAVONE, Method: PREINCUBATION inactive; negative | [4] inactive; negative | Test System: AMES SALMONELLA TYPHIMURIUM, Strain/Indicator: TA1537, Metabolic Activation: RAT, LIVER, S-9, SODIUM PHENOBARBITAL AND 5,6-BENZOFLAVONE, Method: PREINCUBATION inactive; negative | Test System: E. COLI, Strain/Indicator: WP2UVRA/PKM101, Metabolic Activation: NONE, Method: PREINCUBATION inactive; negative | Test System: E. COLI, Strain/Indicator: WP2UVRA/PKM101, Metabolic Activation: RAT, LIVER, S-9, SODIUM PHENOBARBITAL AND 5,6-BENZOFLAVONE, Method: PREINCUBATION inactive; negative | Test System: E. COLI, Strain/Indicator: WP2UVRA, Metabolic Activation: NONE, Method: PREINCUBATION inactive; negative | Test System: E. COLI, Strain/Indicator: WP2UVRA, Metabolic Activation: RAT, LIVER, S-9, SODIUM PHENOBARBITAL AND 5,6-BENZOFLAVONE, Method: PREINCUBATION inactive; negative

O=C(O)C1=NN(c2ccc(S(=O)(=O)O)cc2)C(=O)C1N=Nc1ccc(S(=O)(=O)O)cc1 (stereo not drawn)
inactive: [5] inactive; negative | Test System: AMES SALMONELLA TYPHIMURIUM, Strain/Indicator: TA98, Metabolic Activation: RAT LIVER S-9, AROCLOR 1254, Method: STANDARD PLATE inactive; negative | [6] inactive; negative | Test System: AMES SALMONELLA TYPHIMURIUM, Strain/Indicator: TA100, Metabolic Activation: RAT LIVER S-9, AROCLOR 1254, Method: STANDARD PLATE inactive; negative | Test System: Mouse lymphoma, Strain/Indicator: L5178Y (tk+/tk-), Metabolic Activation: None, Method: Suspension/plate inactive; negative | Test System: Mouse lymphoma, Strain/Indicator: L5178Y (tk+/tk-), Metabolic Activation: Rat, Liver, S-9, Aroclor 1254, Method: Suspension/plate inactive; negative

CC(C)Nc1ccc(Nc2ccccc2)cc1
inactive: Test System: AMES SALMONELLA TYPHIMURIUM, Strain/Indicator: TA98, Metabolic Activation: HAMSTER, LIVER, S-9, AROCLOR 1254 (10%), Method: PREINCUBATION inactive; negative | [1] inactive; negative | [5] inactive; negative | Test System: AMES SALMONELLA TYPHIMURIUM, Strain/Indicator: TA98, Metabolic Activation: RAT LIVER S-9, PHENOBARBITAL AND BETA-NAPHTHOFLAVONE, Method: PREINCUBATION inactive; negative | Test System: AMES SALMONELLA TYPHIMURIUM, Strain/Indicator: TA98, Metabolic Activation: RAT, LIVER, S-9, AROCLOR 1254 (10%), Method: PREINCUBATION inactive; negative | Test System: AMES SALMONELLA TYPHIMURIUM, Strain/Indicator: TA98, Metabolic Activation: S-9, Method: STANDARD PLATE inactive; negative | Test System: AMES SALMONELLA TYPHIMURIUM, Strain/Indicator: TA100, Metabolic Activation: HAMSTER, LIVER, S-9, AROCLOR 1254 (10%), Method: PREINCUBATION inactive; negative | [2] inactive; negative | [6] inactive; negative | Test System: AMES SALMONELLA TYPHIMURIUM, Strain/Indicator: TA100, Metabolic Activation: RAT LIVER S-9, PHENOBARBITAL AND BETA-NAPHTHOFLAVONE, Method: PREINCUBATION inactive; negative | Test System: AMES SALMONELLA TYPHIMURIUM, Strain/Indicator: TA100, Metabolic Activation: RAT, LIVER, S-9, AROCLOR 1254 (10%), Method: PREINCUBATION inactive; negative | Test System: AMES SALMONELLA TYPHIMURIUM, Strain/Indicator: TA100, Metabolic Activation: S-9, Method: STANDARD PLATE inactive; negative | Test System: AMES SALMONELLA TYPHIMURIUM, Strain/Indicator: TA1535, Metabolic Activation: HAMSTER, LIVER, S-9, AROCLOR 1254 (10%), Method: PREINCUBATION inactive; negative | [3] inactive; negative | Test System: AMES SALMONELLA TYPHIMURIUM, Strain/Indicator: TA1535, Metabolic Activation: RAT LIVER S-9, PHENOBARBITAL AND BETA-NAPHTHOFLAVONE, Method: PREINCUBATION inactive; negative | Test System: AMES SALMONELLA TYPHIMURIUM, Strain/Indicator: TA1535, Metabolic Activation: RAT, LIVER, S-9, AROCLOR 1254 (10%), Method: PREINCUBATION inactive; negative | Test System: AMES SALMONELLA TYPHIMURIUM, Strain/Indicator: TA1537, Metabolic Activation: HAMSTER, LIVER, S-9, AROCLOR 1254 (10%), Method: PREINCUBATION inactive; negative | [4] inactive; negative | Test System: AMES SALMONELLA TYPHIMURIUM, Strain/Indicator: TA1537, Metabolic Activation: RAT LIVER S-9, PHENOBARBITAL AND BETA-NAPHTHOFLAVONE, Method: PREINCUBATION inactive; negative | Test System: AMES SALMONELLA TYPHIMURIUM, Strain/Indicator: TA1537, Metabolic Activation: RAT, LIVER, S-9, AROCLOR 1254 (10%), Method: PREINCUBATION inactive; negative | Test System: AMES SALMONELLA TYPHIMURIUM, Strain/Indicator: TA1538, Metabolic Activation: NONE, Method: PREINCUBATION inactive; negative | Test System: AMES SALMONELLA TYPHIMURIUM, Strain/Indicator: TA1538, Metabolic Activation: RAT LIVER S-9, PHENOBARBITAL AND BETA-NAPHTHOFLAVONE, Method: PREINCUBATION inactive; negative | Test System: E.COLI, Strain/Indicator: WP2UVRA, Metabolic Activation: NONE, Method: PREINCUBATION inactive; negative | Test System: E.COLI, Strain/Indicator: WP2UVRA, Metabolic Activation: RAT LIVER S-9, PHENOBARBITAL AND BETA-NAPHTHOFLAVONE, Method: PREINCUBATION inactive; negative

C1COCOC1
inactive: Test System: AMES SALMONELLA TYPHIMURIUM, Strain/Indicator: TA98, Metabolic Activation: HAMSTER, LIVER, S-9, AROCLOR 1254, Method: PREINCUBATION inactive; negative | [1] inactive; negative | Test System: AMES SALMONELLA TYPHIMURIUM, Strain/Indicator: TA98, Metabolic Activation: RAT, LIVER, S-9, AROCLOR 1254, Method: PREINCUBATION inactive; negative | Test System: AMES SALMONELLA TYPHIMURIUM, Strain/Indicator: TA100, Metabolic Activation: HAMSTER, LIVER, S-9, AROCLOR 1254, Method: PREINCUBATION inactive; negative | [2] inactive; negative | Test System: AMES SALMONELLA TYPHIMURIUM, Strain/Indicator: TA100, Metabolic Activation: RAT, LIVER, S-9, AROCLOR 1254, Method: PREINCUBATION inactive; negative | Test System: AMES SALMONELLA TYPHIMURIUM, Strain/Indicator: TA1535, Metabolic Activation: HAMSTER, LIVER, S-9, AROCLOR 1254, Method: PREINCUBATION inactive; negative | [3] inactive; negative | Test System: AMES SALMONELLA TYPHIMURIUM, Strain/Indicator: TA1535, Metabolic Activation: RAT, LIVER, S-9, AROCLOR 1254, Method: PREINCUBATION inactive; negative | Test System: AMES SALMONELLA TYPHIMURIUM, Strain/Indicator: TA1537, Metabolic Activation: HAMSTER, LIVER, S-9, AROCLOR 1254, Method: PREINCUBATION inactive; negative | [4] inactive; negative | Test System: AMES SALMONELLA TYPHIMURIUM, Strain/Indicator: TA1537, Metabolic Activation: RAT, LIVER, S-9, AROCLOR 1254, Method: PREINCUBATION inactive; negative
